Measurements from PubChem BioAssay AID238 (DTP/NCI, 2004).
Where “and” joins values, the source holds several entries; their conditions need not be identical. Equal entries are not always repeated. Toxic doses and inconclusive results are not listed.

Test system: CAF1 mice, leiomyosarcoma No.2 ip, survival T/C%
Test: NCI In Vivo Anticancer Drug Screen. Data for tumor model Leiomyosarcoma (No. 2) (intraperitoneal) in CAF1 mice
Conditions: endpoint: mean survival time, higher = longer survival
Protocol: The antitumor activity of compounds was measured in mice bearing transplantable tumors. Survival or tumor size were measured and the results are expressed as the measurement made in the treated group (T) divided by the measurement made in the vehicle treated control group (C). The tumor model used in this assay is Leiomyosarcoma (No. 2) (intraperitoneal) in CAF1 mice

[1] = dose: 4.0 mg/kg/injection, schedule: Q01DX010 (ip), vehicle: saline
[2] = dose: 8.0 mg/kg/injection, schedule: Q01DX010 (ip), vehicle: saline
[3] = dose: 16.0 mg/kg/injection, schedule: Q01DX010 (ip), vehicle: saline
[4] = dose: 32.0 mg/kg/injection, schedule: Q01DX010 (ip), vehicle: saline
[5] = dose: 0.5 mg/kg/injection, schedule: Q01DX010 (ip), vehicle: saline
[6] = dose: 1.0 mg/kg/injection, schedule: Q01DX010 (ip), vehicle: saline
[7] = dose: 2.0 mg/kg/injection, schedule: Q01DX010 (ip), vehicle: saline
[8] = dose: 5.0 mg/kg/injection, schedule: Q01DX010 (ip), vehicle: saline
[9] = dose: 10.0 mg/kg/injection, schedule: Q01DX010 (ip), vehicle: saline
[10] = dose: 20.0 mg/kg/injection, schedule: Q01DX010 (ip), vehicle: saline
[11] = dose: 64.0 mg/kg/injection, schedule: Q01DX010 (ip), vehicle: saline
[12] = dose: 12.5 mg/kg/injection, schedule: Q01DX010 (sc), vehicle: steriod suspending solution
[13] = dose: 25.0 mg/kg/injection, schedule: Q01DX010 (sc), vehicle: steriod suspending solution
[14] = dose: 50.0 mg/kg/injection, schedule: Q01DX010 (sc), vehicle: steriod suspending solution
[15] = dose: 25.0 mg/kg/injection, schedule: Q01DX010 (ip), vehicle: saline
[16] = dose: 50.0 mg/kg/injection, schedule: Q01DX010 (ip), vehicle: saline
[17] = dose: 100.0 mg/kg/injection, schedule: Q01DX010 (ip), vehicle: saline
[18] = dose: 31.3 mg/kg/injection, schedule: Q01DX010 (ip), vehicle: saline
[19] = dose: 6.25 mg/kg/injection, schedule: Q01DX010 (ip), vehicle: saline
[20] = dose: 12.5 mg/kg/injection, schedule: Q01DX010 (ip), vehicle: saline
[21] = dose: 2.5 mg/kg/injection, schedule: Q01DX010 (ip), vehicle: saline
[22] = dose: 62.5 mg/kg/injection, schedule: Q01DX010 (ip), vehicle: saline
[23] = dose: 125.0 mg/kg/injection, schedule: Q01DX010 (ip), vehicle: saline
[24] = dose: 250.0 mg/kg/injection, schedule: Q01DX010 (ip), vehicle: saline
[25] = dose: 100.0 mg/kg/injection, schedule: Q01DX010 (sc), vehicle: steriod suspending solution
[26] = dose: 1.25 mg/kg/injection, schedule: Q01DX010 (ip), vehicle: saline

`CN1CC[C@]23c4c5ccc(O)c4O[C@H]2C(=O)CC[C@H]3[C@H]1C5` was tested, and the T/C [1] was 96 % of control, the T/C [2] was 92 % of control and the T/C [3] was 104 % of control. For the same molecule, the T/C [4] was 92 % of control.

`Nc1nc(F)nc2c1ncn2C1OC(CO)C(O)C1O` (configuration not stated) was tested, and the T/C [5] was 104 % of control, the T/C [6] was 104 % of control and 113 % of control and the T/C [7] was 100 % of control and 109 % of control. For the same molecule, the T/C [1] was 113 % of control and 118 % of control and the T/C [2] was 86 % of control.

In the case of `C[C@@H]1C[C@@H]([C@H](O)CC2CC(=O)NC(=O)C2)C(=O)[C@@H](C)C1`, the T/C [8] is reported as 100 % of control and 103 % of control, the T/C [9] is reported as 110 % of control and 111 % of control and the T/C [10] is reported as 116 % of control. The T/C (dose: 40.0 mg/kg/injection, schedule: Q01DX010 (ip), vehicle: saline) was 163 % of control and 169 % of control.

For `O=C(Nc1ccc(NC2=NCCN2)cc1)c1ccc(C(=O)Nc2ccc(NC3=NCCN3)cc2)cc1`, the T/C [7] was 103 % of control and 123 % of control, the T/C [2] was 123 % of control and the T/C [3] was 107 % of control.

For `O[C@H](CN1CC1)[C@@H](O)CN1CC1`, the T/C (dose: 125.0 micrograms/kg/injection, schedule: Q01DX010 (ip), vehicle: saline) was 150 % of control, the T/C (dose: 250.0 micrograms/kg/injection, schedule: Q01DX010 (ip), vehicle: saline) was 179 % of control and the T/C (dose: 500.0 micrograms/kg/injection, schedule: Q01DX010 (ip), vehicle: saline) was 204 % of control.

For `c1ccc(CNc2ncnc3[nH]ncc23)cc1`, the T/C [2] was 95 % of control and 103 % of control, the T/C [3] was 92 % of control and 100 % of control and the T/C [4] was 92 % of control and 100 % of control. The T/C [11] was 95 % of control and 96 % of control.

With `Nc1nc(=S)c2ncn(C3OC(CO)C(O)C3O)c2[nH]1` (configuration not stated) the T/C [6] was 258 % of control, the T/C [7] was 197 % of control and 204 % of control and the T/C [1] was 118 % of control. For the same molecule, the T/C [2] was 90 % of control.

`C[C@]12C=CC(=O)C=C1CC[C@@H]1[C@@H]2[C@@H](O)C[C@@]2(C)[C@H]1CC[C@]2(O)C(=O)CO` was tested, and the T/C [12] was 86 % of control and 107 % of control, the T/C [13] was 92 % of control and 93 % of control and the T/C [14] was 100 % of control and 107 % of control.

In the case of `CSc1ncnc2nc[nH]c12`, the T/C [15] is reported as 100 % of control and 109 % of control, the T/C [16] is reported as 104 % of control and 109 % of control and the T/C [17] is reported as 104 % of control and 113 % of control. The T/C (dose: 200.0 mg/kg/injection, schedule: Q01DX010 (ip), vehicle: saline) was 100 % of control.

In the case of `COc1ccc2c(c1OC)C(=O)O[C@@H]2[C@H]1c2c(cc3c(c2OC)OCO3)CCN1C`, the T/C [18] is reported as 92 % of control.

`O=C(O)CCCc1ccc(N(CCCl)CCCl)cc1` was tested, and the T/C [19] was 153 % of control and 279 % of control and the T/C [20] was 203 % of control and 225 % of control.

In the case of `N=C(N)c1ccc(Nc2ccc(C(=N)N)cc2)cc1`, the T/C (dose: 3.0 mg/kg/injection, schedule: Q01DX010 (ip), vehicle: saline) is reported as 108 % of control, the T/C (dose: 6.0 mg/kg/injection, schedule: Q01DX010 (ip), vehicle: saline) is reported as 104 % of control and the T/C (dose: 12.0 mg/kg/injection, schedule: Q01DX010 (ip), vehicle: saline) is reported as 100 % of control.

For `Clc1ncnc2nc[nH]c12`, the T/C (dose: 7.5 mg/kg/injection, schedule: Q01DX010 (ip), vehicle: saline) was 86 % of control and 107 % of control, the T/C (dose: 15.0 mg/kg/injection, schedule: Q01DX010 (ip), vehicle: saline) was 93 % of control and 103 % of control and the T/C (dose: 30.0 mg/kg/injection, schedule: Q01DX010 (ip), vehicle: saline) was 111 % of control and 116 % of control. For the same molecule, the T/C (dose: 60.0 mg/kg/injection, schedule: Q01DX010 (ip), vehicle: saline) was 107 % of control.

In the case of `S=P(N1CCOCC1)(N1CC1)N1CC1`, the T/C [21] is reported as 96 % of control and 104 % of control, the T/C [8] is reported as 116 % of control and 117 % of control and the T/C [9] is reported as 153 % of control and 179 % of control. For the same molecule, the T/C [10] was 164 % of control.

In the case of `CN(C)c1ccc(Nc2c3ccccc3nc3ccccc23)cc1`, the T/C (dose: 36.0 mg/kg/injection, schedule: Q01DX010 (ip), vehicle: saline) is reported as 121 % of control, the T/C (dose: 54.0 mg/kg/injection, schedule: Q01DX010 (ip), vehicle: saline) is reported as 121 % of control and the T/C (dose: 80.0 mg/kg/injection, schedule: Q01DX010 (ip), vehicle: saline) is reported as 300 % of control. For the same molecule, the T/C (dose: 120.0 mg/kg/injection, schedule: Q01DX010 (ip), vehicle: saline) was 300 % of control.

With `O=c1[nH]c(=O)n(C2CC(O)C(CO)O2)cc1F` (configuration not stated) the T/C [8] was 118 % of control and the T/C [9] was 118 % of control.

With `CCCCNc1ncnc2c1cnn2C` the T/C (dose: 15.6 mg/kg/injection, schedule: Q01DX010 (ip), vehicle: saline) was 92 % of control, the T/C [18] was 89 % of control and 103 % of control and the T/C [22] was 90 % of control and 112 % of control.

`CCCSc1ncnc2nc[nH]c12` was tested, and the T/C [18] was 189 % of control and 233 % of control, the T/C [23] was 103 % of control and 117 % of control and the T/C [24] was 103 % of control.

With `CC(=O)O[C@]1(C(C)=O)CC[C@H]2[C@@H]3C[C@H](C)C4=CC(=O)C=C[C@]4(C)[C@@]3(F)[C@@H](O)C[C@@]21C` the T/C [12] was 96 % of control, the T/C [13] was 104 % of control and the T/C [14] was 88 % of control. The T/C [25] was 88 % of control.

For `NC(Cc1ccc(N(CCCl)CCCl)cc1)C(=O)O` (configuration not stated), the T/C [21] was 191 % of control and 265 % of control, the T/C [8] was 166 % of control and 207 % of control and the T/C [9] was 150 % of control and 258 % of control. For the same molecule, the T/C [10] was 192 % of control.

`Oc1cc(CN(CCCl)CCCl)c(O)cc1CN(CCCl)CCCl` was tested, and the T/C (dose: 0.31 mg/kg/injection, schedule: Q01DX010 (ip), vehicle: saline) was 162 % of control, the T/C (dose: 0.63 mg/kg/injection, schedule: Q01DX010 (ip), vehicle: saline) was 159 % of control and the T/C [26] was 159 % of control and 175 % of control and 184 % of control. For the same molecule, the T/C [21] was 186 % of control and the T/C [8] was 118 % of control.

With `Nc1nc(=S)c2[nH]cnc2[nH]1` the T/C [26] was 300 % of control and the T/C [8] was 93 % of control.

For `CS(=O)(=O)OCCC(=O)N1CCN(C(=O)CCOS(C)(=O)=O)CC1`, the T/C [20] was 172 % of control, the T/C [15] was 224 % of control and the T/C [16] was 232 % of control. The T/C [17] was 304 % of control.

`N#[N+]c1cnc([O-])[nH]c1=O` was tested, and the T/C [21] was 213 % of control and the T/C [9] was 93 % of control.

In the case of `O=c1cn[nH]c(=O)[nH]1`, the T/C [22] is reported as 114 % of control, the T/C [23] is reported as 90 % of control and 106 % of control and the T/C [24] is reported as 92 % of control and 107 % of control. The T/C (dose: 500.0 mg/kg/injection, schedule: Q01DX010 (ip), vehicle: saline) was 96 % of control.

In the case of `Nc1nc(SCc2ccccc2)c2[nH]cnc2n1`, the T/C [2] is reported as 112 % of control and 115 % of control, the T/C [3] is reported as 100 % of control and the T/C [4] is reported as 107 % of control and 120 % of control. The T/C [11] was 103 % of control and 104 % of control.

In the case of `CC/C(=C(/CC)c1ccc(O)cc1)c1ccc(O)cc1`, the T/C [12] is reported as 91 % of control and 96 % of control, the T/C [13] is reported as 96 % of control and 100 % of control and the T/C [14] is reported as 91 % of control and 92 % of control. For the same molecule, the T/C [25] was 91 % of control and 100 % of control.

In the case of `COS(C)(=O)=O`, the T/C [20] is reported as 108 % of control, the T/C [15] is reported as 108 % of control and the T/C [16] is reported as 112 % of control.

In the case of `CS(=O)(=O)OCCN(CCOS(C)(=O)=O)c1ccc(N=O)cc1`, the T/C (dose: 0.25 mg/kg/injection, schedule: Q01DX010 (ip), vehicle: saline) is reported as 221 % of control, the T/C [5] is reported as 173 % of control and the T/C [6] is reported as 113 % of control.

`O=NN(CCCl)C(=O)NCCCl` was tested, and the T/C (dose: 3.13 mg/kg/injection, schedule: Q01DX010 (ip), vehicle: saline) was 300 % of control, the T/C [19] was 258 % of control and 300 % of control and the T/C [20] was 115 % of control and 120 % of control.
